Activity calls are given as the source filed them. The rule behind the calls is not given here.
Columns and labels:
[1] = tested on: Mycobacterium tuberculosis; assay: Antitubercular activity against Mycobacterium tuberculosis H37Rv assessed as reduction in microbial growth after 7 days by alamar blue assay; format: functional; conditions: 168 h
Escherichia coli [2] = assay: Antibacterial activity against Escherichia coli MTCC 443 assessed as diameter of zone of inhibition at 200 ug/ml after 24 hrs by agar well diffusion method; format: functional
Staphylococcus aureus [3] = assay: Antibacterial activity against Staphylococcus aureus MTCC 96 assessed as reduction in microbial growth after 24 hrs by CLSI based microdilution method; format: functional; conditions: MTCC 96, 24 h
Bacillus subtilis [4] = assay: Antibacterial activity against Bacillus subtilis MTCC 441 assessed as diameter of zone of inhibition at 200 ug/ml after 24 hrs by agar well diffusion method; format: functional; conditions: for zone of inhibition at 200 µg/mL: MTCC 441, 24 h, read-out: DIZ
Bacillus subtilis [5] = assay: Antibacterial activity against Bacillus subtilis MTCC 441 assessed as reduction in microbial growth after 24 hrs by CLSI based microdilution method; format: functional; conditions: MTCC 441, 24 h
[6] = tested on: Staphylococcus epidermidis; assay: Antibacterial activity against Staphylococcus epidermidis assessed as diameter of zone of inhibition at 200 ug/ml after 24 hrs by agar well diffusion method; format: functional
Staphylococcus aureus [7] = assay: Antibacterial activity against Staphylococcus aureus MTCC 96 assessed as diameter of zone of inhibition at 200 ug/ml after 24 hrs by agar well diffusion method; format: functional
Klebsiella pneumoniae [8] = assay: Antibacterial activity against Klebsiella pneumoniae MTCC 618 assessed as diameter of zone of inhibition at 200 ug/ml after 24 hrs by agar well diffusion method; format: functional
[9] = Cytotoxicity against HEK cells assessed as reduction in cell viability after 24 hrs by MTT assay; format: cell-based, Homo sapiens
CHO-K1 = assay: Cytotoxicity against CHOK1 cells assessed as reduction in cell viability after 24 hrs by MTT assay; format: cell-based; conditions: Cricetulus griseus, CHO-K1, 24 h
[10] = tested on: Staphylococcus epidermidis; assay: Antibacterial activity against Staphylococcus epidermidis assessed as reduction in microbial growth after 24 hrs by CLSI based microdilution method; format: functional
Pseudomonas aeruginosa [11] = assay: Antibacterial activity against Pseudomonas aeruginosa MTCC 741 assessed as reduction in microbial growth after 24 hrs by CLSI based microdilution method; format: functional; conditions: MTCC 741, 24 h
Klebsiella pneumoniae [12] = assay: Antibacterial activity against Klebsiella pneumoniae MTCC 618 assessed as reduction in microbial growth after 24 hrs by CLSI based microdilution method; format: functional; conditions: MTCC 618, 24 h
Pseudomonas aeruginosa [13] = assay: Antibacterial activity against Pseudomonas aeruginosa MTCC 741 assessed as diameter of zone of inhibition at 200 ug/ml after 24 hrs by agar well diffusion method; format: functional
Escherichia coli [14] = assay: Antibacterial activity against Escherichia coli MTCC 443 assessed as reduction in microbial growth after 24 hrs by CLSI based microdilution method; format: functional; conditions: MTCC 443, 24 h
[15] = tested on: Mycobacterium tuberculosis; assay: Antitubercular activity against Mycobacterium tuberculosis H37Rv assessed as log reduction in bacterial population at 10 ug/ml under starvation condition after 7 days by MPN assay; format: functional

For `CC(=O)c1c(O)c(C)c(O)c2c1OC1=CC(=O)/C(=C(/C)NCc3cn(CC(=O)N4CCN(c5ccccc5)CC4)nn3)C(=O)C12C` (configuration not stated), the MIC [1] was 39.9 µM.
In the case of `CC(=O)c1c(O)c(C)c(O)c2c1OC1=CC(=O)/C(=C(/C)NCc3cn(CC(=O)N4CCOCC4)nn3)C(=O)C12C` (configuration not stated), the “diameter of the inhibition zone (DIZ)” value (Escherichia coli [2]) is reported as “inactive”, the MIC (Staphylococcus aureus [3]) is reported as > 350 µM and the zone of inhibition at 200 µg/mL (Bacillus subtilis [4]) is reported as 13 mm. For the same compound, the MIC (Bacillus subtilis [5]) was 90.7 µM, the “diameter of the inhibition zone (DIZ)” value [6] was “inactive” and the MIC [1] was 22.3 µM. For the same compound, the “diameter of the inhibition zone (DIZ)” value (Staphylococcus aureus [7]) was “inactive”, the “diameter of the inhibition zone (DIZ)” value (Klebsiella pneumoniae [8]) was “inactive” and the IC50 ([9]; Homo sapiens, HEK293, 24 h, read-out: IC50) was 53.4 µM. The IC50 (CHO-K1) was 23.3 µM, the MIC [10] was > 350 µM and the MIC (Pseudomonas aeruginosa [11]) was > 350 µM. The MIC (Klebsiella pneumoniae [12]) was > 350 µM, the “diameter of the inhibition zone (DIZ)” value (Pseudomonas aeruginosa [13]) was “inactive” and the MIC (Escherichia coli [14]) was > 350 µM.
`CC(=O)c1c(O)c(C)c(O)c2c1OC1=CC(=O)/C(=C(/C)NCc3cn(CC(=O)c4c5ccccc5cc5ccccc45)nn3)C(=O)C12C` (configuration not stated) showed an MIC [1] of 9.7 µM.
For `CC(=O)c1c(O)c(C)c(O)c2c1OC1=CC(=O)/C(=C(/C)NCc3cn(CC(=O)N4CCSCC4)nn3)C(=O)C12C` (configuration not stated), the “diameter of the inhibition zone (DIZ)” value (Escherichia coli [2]) was “inactive”, the MIC (Staphylococcus aureus [3]) was > 350 µM and the “diameter of the inhibition zone (DIZ)” value (Bacillus subtilis [4]) was “inactive”. The MIC (Bacillus subtilis [5]) was > 350 µM, the “diameter of the inhibition zone (DIZ)” value [6] was “inactive” and the MIC [1] was 44 µM. For the same compound, the “diameter of the inhibition zone (DIZ)” value (Staphylococcus aureus [7]) was “inactive”, the “diameter of the inhibition zone (DIZ)” value (Klebsiella pneumoniae [8]) was “inactive” and the MIC [10] was > 350 µM. The MIC (Pseudomonas aeruginosa [11]) was > 350 µM, the MIC (Klebsiella pneumoniae [12]) was > 350 µM and the “diameter of the inhibition zone (DIZ)” value (Pseudomonas aeruginosa [13]) was “inactive”. The MIC (Escherichia coli [14]) was > 350 µM.
Work on `CC(=O)c1c(O)c(C)c(O)c2c1OC1=CC(=O)/C(=C(/C)NCc3cn(CC(=O)c4nccs4)nn3)C(=O)C12C` (configuration not stated) yielded an MIC [1] of 45.5 µM.
`CO[C@@]12[C@H](COC(N)=O)C3=C(C(=O)C(C)=C(N)C3=O)N1C[C@@H]1N[C@@H]12` [MITOMYCIN] gave an IC50 (CHO-K1) of 39.8 µM.
`COc1ccc(C(=O)Cn2cc(CN/C(C)=C3\C(=O)C=C4Oc5c(C(C)=O)c(O)c(C)c(O)c5C4(C)C3=O)nn2)cc1` (configuration not stated) gave an MIC [1] of 43.7 µM.
In the case of `CC(=O)c1c(O)c(C)c(O)c2c1OC1=CC(=O)/C(=C(/C)NCc3cn(CC(=O)c4ccc(C#N)cc4)nn3)C(=O)C12C` (configuration not stated), the MIC [1] is reported as 44.1 µM.
In the case of `CC(=O)c1c(O)c(C)c(O)c2c1OC1=CC(=O)/C(=C(/C)NCc3cn(CC(=O)c4cccs4)nn3)C(=O)C12C` (configuration not stated), the MIC [1] is reported as 45.6 µM.
With `COc1ccccc1N1CCN(C(=O)Cn2cc(CN/C(C)=C3\C(=O)C=C4Oc5c(C(C)=O)c(O)c(C)c(O)c5C4(C)C3=O)nn2)CC1` (configuration not stated) the “diameter of the inhibition zone (DIZ)” value (Escherichia coli [2]) was “inactive”, the MIC (Staphylococcus aureus [3]) was > 350 µM and the zone of inhibition at 200 µg/mL (Bacillus subtilis [4]) was 10 mm. The MIC (Bacillus subtilis [5]) was 305 µM, the “diameter of the inhibition zone (DIZ)” value [6] was “inactive” and the MIC [1] was 9.5 µM. For the same compound, the “diameter of the inhibition zone (DIZ)” value (Staphylococcus aureus [7]) was “inactive”, the “diameter of the inhibition zone (DIZ)” value (Klebsiella pneumoniae [8]) was “inactive” and the IC50 [9] was “Non-Toxic”. For the same compound, the IC50 (CHO-K1) was 40.4 µM, the MIC [10] was > 350 µM and the MIC (Pseudomonas aeruginosa [11]) was > 350 µM. The MIC (Klebsiella pneumoniae [12]) was > 350 µM, the “diameter of the inhibition zone (DIZ)” value (Pseudomonas aeruginosa [13]) was “inactive” and the MIC (Escherichia coli [14]) was > 350 µM.
In the case of `CC(=O)c1c(O)c(C)c(O)c2c1OC1=CC(=O)/C(=C(/C)NCc3cn(CC(=O)c4ccc(OC(F)(F)F)cc4)nn3)C(=O)C12C` (configuration not stated), the MIC [1] is reported as 39.9 µM.
In the case of `CC(=O)c1c(O)c(C)c(O)c2c1OC1=CC(=O)/C(=C(/C)NCc3cn(CC(=O)N4CCN(C/C=C/c5ccccc5)CC4)nn3)C(=O)C12C` (configuration not stated), the MIC [1] is reported as 37.5 µM.
With `COc1c(N2C[C@@H]3CCCN[C@@H]3C2)c(F)cc2c(=O)c(C(=O)O)cn(C3CC3)c12` [MOXIFLOXACIN] the FC [15] was 2.
Work on `NNC(=O)c1ccncc1` [ISONIAZID] yielded an MIC [1] of 2.9 µM and an FC [15] of 1.5.
In the case of `CC(=O)c1c(O)c(C)c(O)c2c1OC1=CC(=O)/C(=C(/C)NCc3cn(CC(=O)N4CCN(c5ccccc5Cl)CC4)nn3)C(=O)C12C` (configuration not stated), the MIC (Staphylococcus aureus [3]) is reported as > 350 µM, the MIC (Bacillus subtilis [5]) is reported as 302 µM and the MIC [1] is reported as 37.8 µM. The MIC [10] was > 350 µM, the MIC (Pseudomonas aeruginosa [11]) was > 350 µM and the MIC (Klebsiella pneumoniae [12]) was > 350 µM. For the same compound, the MIC (Escherichia coli [14]) was > 350 µM.
Work on `CO[C@H]1/C=C/O[C@@]2(C)Oc3c(C)c(O)c4c(O)c(c(/C=N/N5CCN(C)CC5)c(O)c4c3C2=O)NC(=O)/C(C)=C\C=C\[C@H](C)[C@H](O)[C@@H](C)[C@@H](O)[C@@H](C)[C@H](OC(C)=O)[C@@H]1C` [RIFAMPIN] yielded an MIC [1] of 0.6 µM and an FC [15] of 1.8.
`COc1cccc(C(=O)Cn2cc(CN/C(C)=C3\C(=O)C=C4Oc5c(C(C)=O)c(O)c(C)c(O)c5C4(C)C3=O)nn2)c1` (configuration not stated) gave an MIC [1] of 43.7 µM.
In the case of `CC(=O)c1c(O)c(C)c(O)c2c1OC1=CC(=O)/C(=C(/C)NCc3cn(CC(=O)c4cc5ccccc5s4)nn3)C(=O)C12C` (configuration not stated), the MIC [1] is reported as 41.8 µM.
Compound `CC(=O)c1c(O)c(C)c(O)c2c1OC1=CC(=O)/C(=C(/C)NCc3cn(CC(=O)c4ccc5c(c4)Cc4ccccc4-5)nn3)C(=O)C12C` (configuration not stated) has an MIC [1] of 9.9 µM.

Reference: ChEMBL document CHEMBL4342442, “Usnic Acid Enaminone-Coupled 1,2,3-Triazoles as Antibacterial and Antitubercular Agents” (J Nat Prod, 2020)
